Patent publication US9656945B2, “3-acyl-ingenols II” (LEO LABORATORIES LIMITED, priority 2010, dated 2017)

Experiments:
Type in all cases: cell-based
[1] = test system: PMN's (polymorphonuclear leukocytes); assay: Neutrophil oxidative burst assay; settings: Leukocyte, 40 min, read-out: Neutrophil oxidative burst Rel EC50 range
Method: PMN's (polymorphonuclear leukocytes) were isolated and purified from fresh buffy coats by sequential sedimentation, density centrifugation and lysis of contaminating erythrocytes. Buffy coats were incubated with 2% methocel for 30-45 min to differentially sediment red blood cells. The leukocyte-rich supernatant was transferred to lymphoprep tubes to remove mononuclear cells by density centrifugation (400×g, 30 min). The pellet was resuspended and any remaining erythrocytes lysed using 0.2% NaCl for 30 sec before restoring isotonicity by the addition of 1.2% NaCl. This step was repeated until the cell pellet appears relatively free of red blood cells. Cells were resuspended in DPBS (Dulbecco's Phosphate Buffered Saline) (w.o. Ca^2+, Mg^2+) and the concentration adjusted to 1.4×10^6 cells/ml in HBSS (Hanks Balanced Salt solution) (w Ca^2+, Mg^2+) containing 0.1% BSA (Bovine Serum Albumin) and 5 mM glucose just prior to assay initiation. Titrated reference and test compounds were pre-mixed with HE (Hydroethidine) (10 μM final assay concentration) before addition to 96-well plates containing 2.5×10^5 cells. Following 40 min incubation at RT, changes in the respiratory burst was estimated by measuring fluorescence at 579 nm (excitation: 485 nm) using an Envision plate reader.
Test compound titration curves were fitted to a four-parameter sigmoidal curve after normalizing the effect of the test compound to the effect of the positive control (5×10^−7 M PEP0005). Rel EC50 denotes the concentration of test compound producing an effect that is midway between the fitted top and bottom. Abs EC50 is the concentration of test compound that provokes a response corresponding to 50% of the maximal effect associated with the positive control (5×10^−7 M PEP0005).

[2] = test system: Primary human epidermal keratinocytes, HeKa; assay: HeKa cytokine release (IL-8) assay; settings: 6 h, read-out: HeKa cytokine release (IL-8) Rel EC50 range
Method: Primary human epidermal keratinocytes, HeKa, were seeded (10.000 cells/well) in 96-well plates the day before the assay. Test compounds were diluted in DMSO (dimethyl sulfoxide) and further diluted in assay medium and pipetted into wells of 96 well-plates containing HeKa cells. The plates were incubated for 6 h at 37° C. in humidified air with 5% CO2. Plates are centrifuged briefly to spin down cells at 4° C., the supernatant was removed and analysed by Meso Scale Discovery (MSD) 4-spot cytokine assay (Pro-inflammatory II Ultra Sensitive kit, MSD, MD, USA). The MSD assay employs a sandwich immunoassay format where capture antibodies were coated in a patterned array on the bottom of the wells of a 4-Spot-Multi-MSD plate. Standard samples were incubated in the MULTI-SPOT plates as well, and the cytokine (IL-8) binds to its corresponding capture antibody spot. The cytokine level was quantitated on a SECTOR™ Imager using a cytokine-specific Detection Antibody labelled with MSD SULFO-TAG™ reagent.
Test compound titration curves were fitted to a four-parameter sigmoidal curve after normalizing the effect of the test compound to the effect of the positive control (1.5×10^−7 M PEP0005). Rel EC50 denotes the concentration of test compound producing an effect that is midway between the fitted top and bottom.

[3] = test system: HeLa cells (ATCC CCL-002); assay: Necrosis assay; settings: Homo sapiens, 0.5 h, read-out: HeLa necrosis EC50 range
Method: HeLa cells (ATCC CCL-002) were grown in minimal essential medium (Invitrogen catalog no. 42360) containing 10% fetal bovine serum, 100 IU/ml penicillin and 100 μg/ml streptomycin. 4,000-6,000 cells were seeded into 96-well black ViewPlates-plates, clear bottom, (Perkin Elmer) in 100 μl medium and incubated overnight. Compounds were dissolved and pre-diluted in DMSO in 96-well polypropylene plates (Greiner) in a concentration range of 15 μM to 600 μM. At the time of the experiment cell plates were placed on heating blocks at 37° C., medium was removed and 40 μl fresh, pre-warmed medium was added per well. Cells were incubated for 15 min before addition of compounds. In parallel, 3 μl of compounds were diluted with 197 μl growth medium on a Tecan freedom-EVO pipetting station using 250 μl/s pipetting speed, in order to ensure effective mixing of the highly concentrated compound solutions with the aqueous phase. These pre-dilution plates were then equilibrated on heating blocks at 37° C. for 10 min. 80 μl pre-diluted compound were transferred manually to the corresponding wells containing HeLa cells yielding compound concentrations of 10 μM to 400 μM. Control conditions were 1% DMSO in growth medium (100% viability) and 400 μM ingenol mebutate in growth medium (0% viability). Plates were incubated on the heating blocks at 37° C. for 30 min. At the end of the incubation 10 μl PrestoBlue reagent (Invitrogen) were added to each well, plates were sealed with black seal, followed by incubation at 37° C. for 10 min with gentle shaking (150 rpm). Subsequently, plates were placed at room temperature for 20-30 min. Plates were read immediately after on an Envision Fluorescence reader (Perkin Elmer) with excitation at 535 nm and emission at 630 nm. Test compound titration curves were fitted to a four-parameter sigmoidal curve after normalizing the effect of the test compound to the effect of the positive control (4 10^−4 M PEP0005/ingenol mebutate). AbsEC50 denotes the concentration of test compound producing 50% effect.

CC1=C[C@]23C(=O)[C@@H](C=C(CO)[C@@H](O)[C@]2(O)[C@H]1OC(=O)C1CC1)[C@H]1[C@@H](C[C@H]3C)C1(C)C [Compound 301, Ingenol 3-(cyclopropanecarboxylate)]
EC50 [1]: 20 to 100 nM | EC50 [2]: > 100 nM

CC1=C[C@]23C(=O)[C@@H](C=C(CO)[C@@H](O)[C@]2(O)[C@H]1OC(=O)C1CCCCC1)[C@H]1[C@@H](C[C@H]3C)C1(C)C [Compound 302, Ingenol 3-(cyclohexanecarboxylate)]
EC50 [1]: < 20 nM | EC50 [2]: 20 to 100 nM | EC50 [3]: 150000 to 350000 nM

CC1=C[C@]23C(=O)[C@@H](C=C(CO)[C@@H](O)[C@]2(O)[C@H]1OC(=O)C1CCC1)[C@H]1[C@@H](C[C@H]3C)C1(C)C [Compound 303, Ingenol 3-(cyclobutanecarboxylate)]
EC50 [1]: < 20 nM | EC50 [2]: > 100 nM

CC1=C[C@]23C(=O)[C@@H](C=C(CO)[C@@H](O)[C@]2(O)[C@H]1OC(=O)C1CCCC1)[C@H]1[C@@H](C[C@H]3C)C1(C)C [Compound 304, Ingenol 3-(cyclopentanecarboxylate)]
EC50 [1]: < 20 nM | EC50 [2]: 20 to 100 nM

CC1=C[C@]23C(=O)[C@@H](C=C(CO)[C@@H](O)[C@]2(O)[C@H]1OC(=O)C1=CCCCC1)[C@H]1[C@@H](C[C@H]3C)C1(C)C [Compound 305, Ingenol 3-(cyclohexene-1-carboxylate)]
EC50 [1]: < 20 nM | EC50 [2]: < 20 nM

COC(=O)C1(C(=O)O[C@H]2C(C)=C[C@]34C(=O)[C@@H](C=C(CO)[C@@H](O)[C@]23O)[C@H]2[C@@H](C[C@H]4C)C2(C)C)CC1 [Compound 306, Ingenol 3-(1-methoxycarbonyl-cyclopropylcarboxylate)]
EC50 [1]: 20 to 100 nM | EC50 [2]: > 100 nM | EC50 [3]: > 350000 nM

CC1=C[C@]23C(=O)[C@@H](C=C(CO)[C@@H](O)[C@]2(O)[C@H]1OC(=O)C12C[C@@H]4CC1C[C@@H](C4)C2)[C@H]1[C@@H](C[C@H]3C)C1(C)C [Compound 307, Ingenol 3-(noradamantane-3-carboxylate)]
EC50 [1]: < 20 nM | EC50 [2]: < 20 nM | EC50 [3]: 150000 to 350000 nM

CC1=C[C@]23C(=O)[C@@H](C=C(CO)[C@@H](O)[C@]2(O)[C@H]1OC(=O)C1(C)CCCCC1)[C@H]1[C@@H](C[C@H]3C)C1(C)C [Compound 308, Ingenol 3-(1-methyl-cyclohexanecarboxylate)]
EC50 [1]: < 20 nM | EC50 [2]: < 20 nM | EC50 [3]: < 150000 nM

CC1=C[C@]23C(=O)[C@@H](C=C(CO)[C@@H](O)[C@]2(O)[C@H]1OC(=O)C1(C#N)CCCCC1)[C@H]1[C@@H](C[C@H]3C)C1(C)C [Compound 309, Ingenol 3-(1-cyano-cyclohexanecarboxylate)]
EC50 [1]: < 20 nM

CC1=C[C@]23C(=O)[C@@H](C=C(CO)[C@@H](O)[C@]2(O)[C@H]1OC(=O)c1ccccc1C)[C@H]1[C@@H](C[C@H]3C)C1(C)C [Compound 310, Ingenol 3-(2-methyl-benzoate)]
EC50 [1]: < 20 nM | EC50 [2]: < 20 nM

CC1=C[C@]23C(=O)[C@@H](C=C(CO)[C@@H](O)[C@]2(O)[C@H]1OC(=O)c1ccc(F)cc1)[C@H]1[C@@H](C[C@H]3C)C1(C)C [Compound 311, Ingenol 3-(4-fluoro-benzoate)]
EC50 [1]: < 20 nM | EC50 [2]: < 20 nM | EC50 [3]: < 150000 nM

CC1=C[C@]23C(=O)[C@@H](C=C(CO)[C@@H](O)[C@]2(O)[C@H]1OC(=O)c1c(Cl)cccc1Cl)[C@H]1[C@@H](C[C@H]3C)C1(C)C [Compound 317, Ingenol 3-(2,6-dichloro-benzoate)]
EC50 [1]: 20 to 100 nM | EC50 [2]: < 20 nM

CC1=C[C@]23C(=O)[C@@H](C=C(CO)[C@@H](O)[C@]2(O)[C@H]1OC(=O)c1c(Cl)cc(Cl)cc1Cl)[C@H]1[C@@H](C[C@H]3C)C1(C)C [Compound 318, Ingenol 3-(2,4,6-trichloro-benzoate)]
EC50 [1]: 20 to 100 nM | EC50 [2]: < 20 nM

C=CCOc1cccc(C)c1C(=O)O[C@H]1C(C)=C[C@]23C(=O)[C@@H](C=C(CO)[C@@H](O)[C@]12O)[C@H]1[C@@H](C[C@H]3C)C1(C)C [Compound 326, Ingenol 3-(2-allyloxy-6-methyl-benzoate)]
EC50 [1]: < 20 nM | EC50 [3]: < 150000 nM

CC1=C[C@]23C(=O)[C@@H](C=C(CO)[C@@H](O)[C@]2(O)[C@H]1OC(=O)c1c(C)cccc1O)[C@H]1[C@@H](C[C@H]3C)C1(C)C [Compound 327, Ingenol 3-(2-hydroxy-6-methyl-benzoate)]
EC50 [1]: < 20 nM | EC50 [3]: 150000 to 350000 nM

CC1=C[C@]23C(=O)[C@@H](C=C(CO)[C@@H](O)[C@]2(O)[C@H]1OC(=O)c1c(C)cccc1Cl)[C@H]1[C@@H](C[C@H]3C)C1(C)C [Compound 328, Ingenol 3-(2-chloro-6-methyl-benzoate)]
EC50 [1]: < 20 nM | EC50 [3]: < 150000 nM

COc1cc(C)c(C(=O)O[C@H]2C(C)=C[C@]34C(=O)[C@@H](C=C(CO)[C@@H](O)[C@]23O)[C@H]2[C@@H](C[C@H]4C)C2(C)C)c(OC)c1 [Compound 329, Ingenol 3-(2,4-dimethoxy-6-methyl-benzoate)]
EC50 [1]: < 20 nM | EC50 [3]: < 150000 nM

COc1cccc(N)c1C(=O)O[C@H]1C(C)=C[C@]23C(=O)[C@@H](C=C(CO)[C@@H](O)[C@]12O)[C@H]1[C@@H](C[C@H]3C)C1(C)C [Compound 334, Ingenol 3-(2-amino-6-methoxy-benzoate)]
EC50 [1]: 20 to 100 nM | EC50 [2]: 20 to 100 nM

CC(=O)Nc1cccc(C)c1C(=O)O[C@H]1C(C)=C[C@]23C(=O)[C@@H](C=C(CO)[C@@H](O)[C@]12O)[C@H]1[C@@H](C[C@H]3C)C1(C)C [Compound 337, Ingenol 3-(2-acetylamino-6-methyl-benzoate)]
EC50 [1]: > 100 nM | EC50 [2]: > 100 nM

CC1=C[C@]23C(=O)[C@@H](C=C(CO)[C@@H](O)[C@]2(O)[C@H]1OC(=O)c1c(C)cccc1NC(=O)C(C)C)[C@H]1[C@@H](C[C@H]3C)C1(C)C [Compound 338, Ingenol 3-(2-methyl-6-(2-methylpropanoylamino)-benzoate)]
EC50 [1]: > 100 nM | EC50 [2]: > 100 nM

CC1=C[C@]23C(=O)[C@@H](C=C(CO)[C@@H](O)[C@]2(O)[C@H]1OC(=O)C1C(C)(C)C1(C)C)[C@H]1[C@@H](C[C@H]3C)C1(C)C [Compound 344, Ingenol 3-(2,2,3,3-tetramethylcyclopropylcarboxylate)]
EC50 [1]: < 20 nM | EC50 [2]: < 20 nM
